# Experimental data from patent publication US11491168B2, “Combination of Bcl-2/Bcl-xL inhibitors and chemotherapeutic agent and use thereof” (ASCENTAGE PHARMA (SUZHOU) CO., LTD., priority 2019, dated 2022).
# Where “and” joins values, the source holds several entries; their conditions need not be identical. Equal values may be shown once. Read-outs that look alike come from different tables or passages of the source.
# What was measured:
# NCI-N87 xenograft [1] = assay: NCI-N87 xenograft model, Compound 15 with 5-FU; conditions: for mouse tumor volume upon the end point: Compound 15 50 mg/kg qd 10 days, 5-FU 25 mg/kg once a week for two weeks
# NCI-N87 cells = assay: AnnexinV/PI staining apoptosis, NCI-N87; assay type: cell-based; conditions: NCI-N87, 48 hours; Compound 31 0.3 μM, 5-FU 3 μM
# Description: (§1) The inventors chose to combine Compound 31 with one of the most common chemotherapeutic drugs in clinic, 5-fluorouracil (5-FU). In order to investigate the effect and the potential mechanisms of Compound 31 and 5-FU on the growth of gastric cancer cells, the inventors used the AnnexinV/PI staining to detect the apoptosis of two gastric cancer cells, AGS and NCI-N87, 48 hours after the treatment with Compound 31 (0.3 μM), 5-FU (3 μM), and the combination at specified concentrations. […] In NCI-N87 cells, the combination group also achieved a higher apoptosis rate than the mono therapy groups, Compound 31 or 5-FU as a single agent leading to apoptosis rates of 24% or 18% while the combination group reaching an apoptosis rate of 46% (FIG. 29(a)).
# AGS cells = assay: AnnexinV/PI staining apoptosis, AGS; assay type: cell-based; conditions: 48 hours, Compound 31 0.3 μM, 5-FU 3 μM
# Description: as §1
# NCI-N87 xenograft [2] = assay: NCI-N87 xenograft model, Compound 15 single agent; assay type: in vivo, nude mice; conditions: for mouse tumor volume upon the end point: tail vein injection, 10 consecutive days
# Description: The NCI-N87 tumor-bearing mice were treated with different doses of Compound 15 by tail vein injection for 10 consecutive days.
# The inventors extracted proteins from the removed tumor tissues and prepared tissue sections.
# [3] = system: SCLC patient-derived xenograft LU5188; assay: LU5188 SCLC patient-derived xenograft; assay type: in vivo, female NOD.SCID mice; conditions: for T/C (%) @ day 21: doses as Table 3; for RTV @day 21: mean ± SEM, Compound 15 50 mg/kg i.v. BIW, Irinotecan 10 mg/kg i.p. Q4D, Paclitaxel 10 mg/kg i.v. Q4D
# Description: (§2) The therapeutic efficacy of compound 15 alone and its multiple combinations in the treatment of subcutaneous HuPrime® Lung cancer xenograft model LU5250 and LU5188 in female NOD.SCID mice was evaluated.
# (§3) Either LU5250 or LU5188 tumor mass with rough size of 3×3×3 mm^3 were inoculated into female NOD.SCID mice and the day of randomization was denoted as day 1. The treatment was initiated on day 1 when tumors approximated a mean volume 136 mm^3 of LU5250 and 155 mm^3 of LU5188, respectively. There were 6 groups enrolled in each model eventually. See Table 3 for the mode of administration and doses. Both models were taken down on day 21.
# [4] = system: subcutaneous NCI-H146 lung cancer xenograft; assay: NCI-H146 lung cancer xenograft model (Example 8); assay type: in vivo, female SCID mice; conditions: for RTV @day 21: Compound 15 20 mg/kg i.v. BIW, Irinotecan 5 mg/kg i.p. QW, Paclitaxel 10 mg/kg i.v. QW, Cisplatin 1 mg/kg i.p. Q4D; for mRECIST_best: best response during the treatment, PR partial response, CR complete response, SD stable disease, PD progressive disease; for T/C (%) @ day 21: doses as Table 6; for mRECIST_last: response on the last day of treatment, PR, CR, SD, PD
# Description: The therapeutic efficacy of compound 15 alone and in multiple combinations in the treatment of subcutaneous NCI-H146 lung cancer xenograft model was evaluated.
# 1×10^7 NCI-H146 tumor cells were pre-treated in 0.1 mL of phosphate buffer and Matrigel (7:3) and inoculated into female SCID mice. The day of randomization was denoted as day 1. The treatment was initiated on day 1. The study was conducted in 8 groups of mice. See Table 6 for the mode of administration and doses. The entire study was taken down on day 21. The study was conducted in 40 mice. All the animals were randomized into 8 experimental groups.
# [5] = system: SCLC patient-derived xenograft LU5250; assay: LU5250 SCLC patient-derived xenograft; assay type: in vivo, female NOD.SCID mice; conditions: for T/C (%) @ day 21: doses as Table 3; for RTV @day 21: mean ± SEM, Compound 15 50 mg/kg i.v. BIW, Irinotecan 10 mg/kg i.p. Q4D, Paclitaxel 10 mg/kg i.v. Q4D
# Description: as §2, §3
# [6] = system: human PC3 cell line prostate cancer xenograft; assay: PC3 prostate cancer xenograft model; conditions: Compound 15 100 mg/kg; docetaxel 8 mg/kg
# Description: (§4) Subcutaneous xenograft tumor model of human cancer was established in immunodeficient mouse by cell inoculation: tumor cells in logarithmic growth phase were collected, counted, and then re-suspended in 1×PBS. The concentration of the cell suspension was adjusted to 2.5-5×10^7/mL. Tumor cells were inoculated subcutaneously in the right back of the immunized normal mouse with a 1 mL syringe (4 gauge needle) at 5-10×10^6/0.2 mL/mouse.
# (§5) Animal weight and tumor size were measured twice a week during the study. The animals were checked daily for morbility and etc. […] Mortality and clinical signs observed during the study were recorded in the raw data. […]
# (§6) Tumor volume (TV) was calculated as: TV=a×b^2/2 wherein a and b represent the measured length and width of tumor, respectively.
# (§7) Relative tumor volume (RTV) was calculated as: RTV=Vt/V1 wherein V1 was the tumor volume on the first day of dosing, and Vt was the tumor volume measured on day t after dosing.
# (§8) Relative tumor proliferation rate T/C (%), as an indication of anti-tumor effectiveness, was calculated as: Relative tumor proliferation rate T/C (%)=(TRTV/CRTV)×100%, wherein TRTV was RTV in treatment group, and CRTV was RTV in vehicle control group. […]
# [7] = activity compared with first generation BCL-2 inhibitor
# Bcl-xl = Bcl-xl (Homo sapiens, UniProt Q07817); assay: binding to Bcl-xl protein
# Mcl-1 = Mcl-1 (Homo sapiens, UniProt Q07820); assay: binding to Mcl-1
# platelet = platelet toxicity; conditions: versus first-generation BCL-2 inhibitors
# [8] = system: human SW620 cell line colon cancer xenograft; assay: SW620 colon cancer xenograft model; assay type: in vivo, mice; conditions: single agents: Compound 15 100 mg/kg; irinotecan 50 mg/kg
# Description: as §4, §5, §6, §7, §8
# metastatic solid tumors [9] = assay: U.S. clinical trial as of Dec. 21, 2019; assay type: in vivo
# Description: Three clinical trials (Phase I or Phase I/II) with similar study designs were conducted in the United States, Australia, and China. During the dose escalation phase, the patient received Compound 15 (10-400 mg) twice weekly or weekly intravenously for a 28-day treatment cycle. Tumor response assessment was performed every 2 cycles according to RECIST 1.1 criteria. The purpose of the study was to assess safety, maximum tolerated dose (MTD)/recommended phase II dose (RP2D), pharmacokinetics (PK), pharmacodynamics (PD), and the preliminary efficacy of Compound 15 as a single agent in metastatic solid tumors.
# As of Dec. 21, 2019, 42 US patients with metastatic solid tumors (Table A) received Compound 15 treatment ranging from 10-400 mg in at least one 28-day cycle. The patients were treated in 2 cohorts. 31 patients in cohort 1 received Compound 15 twice a week (BIW) by intravenous (IV) infusion at a dose of 10 mg, 20 mg, 40 mg, 80 mg, 160 mg, 240 mg, 320 mg, or 400 mg; 11 patients in cohort 2 received Compound 15 once a week (QW) by IV infusion at a dose of 240 mg or 320 mg.
# [10] = system: MDA-MB-231 triple-negative breast cancer tumor cell line; assay: WST (CCK-8) anti-proliferation assay
# Description: Cell plating: Anti-proliferation effects were detected by a CCK-8 (Cell Counting Kit-8) assay based on water soluble tetrazolium salt (WST).
# The cells were seeded in 96-well plates. 95 μL complete medium was added to each negative control group, and 95 μL cell suspension in complete medium was added at a density of 5-10×10^4 cells/well to each well to be tested.
# The MGC80-3 and SW620 used in the examples were purchased from the Cell Bank of the Shanghai Institute of Biochemistry and Cell Biology, Chinese Academy of Sciences. MDA-MB-231, PC-3, and NCI-H146 were available from the American Type Culture Collection (ATCC) under accession Nos. HTB-26, CRL-1435, and HTB-173, respectively. It should be noted that the cells used in the present disclosure are all available from ATCC. […]
# Reading: At the end of the culture, for adherent cells, the old solution in the test wells was removed and 100 μl/well CCK-8 test solution (the corresponding medium containing 10% CCK-8, 5% FBS) was added. […]
# The OD value was measured using a microplate reader (SpectraMax Plus 384, Molecular Devices, LLC., US) A450 nm. […] The percentage of cell viability was calculated by the following formula: (O.D. test well−O.D. blank control well)/(O.D. cell control well−O.D. blank control well)×100%.
# The IC50 was calculated using the nonlinear regression data analysis method of Graphpad Prism 6.0 software.
# metastatic solid tumors [11] = assay: Phase I or I/II clinical trials, pooled results as of Jan. 31, 2019; assay type: in vivo
# Description: Three clinical trials (Phase I or Phase I/II) with similar study designs were conducted in the United States, Australia, and China. […] Tumor response assessment was performed every 2 cycles according to RECIST 1.1 criteria.
# Bcl-w = Bcl-w (Homo sapiens, UniProt Q92843); assay: binding to Bcl-w protein
# Bcl-2 = Bcl-2 (Homo sapiens, UniProt P10415); assay: binding to Bcl-2 protein
# [12] = system: human MGC80-3 cell line gastric cancer xenograft; assay: MGC80-3 gastric cancer xenograft model
# Description: as §4
# Animal weight and tumor size were measured twice a week during the study. The animals were checked daily for morbility and etc. At the time of routine monitoring, the animal were checked for any effects of tumor growth and treatments on behaviors such as mobility, food and water consumption, body weight gain/loss, eyes, hairing and any other abnormalities. Mortality and clinical signs observed during the study were recorded in the raw data. The dosing of the drugs and the measurement of mouse weight and tumor volume were all conducted in a laminar flow cabinet. According to requirements of the study protocol, plasma and tumor tissue were collected, weighed and photographed at the end of last dosing. Plasma and tumor samples were frozen at −80° C. for later use.
# as §6, §7
# Relative tumor proliferation rate T/C (%), as an indication of anti-tumor effectiveness, was calculated as: Relative tumor proliferation rate T/C (%)=(TRTV/CRTV)×100%, wherein TRTV was RTV in treatment group, and CRTV was RTV in vehicle control group.
# Tumor remission rate (%) was calculated by dividing the number of tumor bearing mice that show SD (stable disease), PR (partial regression) and CR (complete regression) after treatment by the total number of mice in the group×100%. Change of body weight (%)=(measured body weight−body weight at randomization)/body weight at randomization×100%.
# [13] = FIG. 6: Compound 15 100 mg/kg, docetaxel 12 mg/kg, cisplatin 3 mg/kg
# Chain of Bcl-2 (P10415 whole entry): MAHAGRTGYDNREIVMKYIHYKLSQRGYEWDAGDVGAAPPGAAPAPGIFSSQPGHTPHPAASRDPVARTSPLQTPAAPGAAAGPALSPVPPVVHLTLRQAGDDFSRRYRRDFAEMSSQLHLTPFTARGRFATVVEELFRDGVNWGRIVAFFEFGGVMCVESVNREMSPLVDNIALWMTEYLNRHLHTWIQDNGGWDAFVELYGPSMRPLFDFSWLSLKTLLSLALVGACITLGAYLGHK
# Chain of Bcl-w (Q92843 whole entry): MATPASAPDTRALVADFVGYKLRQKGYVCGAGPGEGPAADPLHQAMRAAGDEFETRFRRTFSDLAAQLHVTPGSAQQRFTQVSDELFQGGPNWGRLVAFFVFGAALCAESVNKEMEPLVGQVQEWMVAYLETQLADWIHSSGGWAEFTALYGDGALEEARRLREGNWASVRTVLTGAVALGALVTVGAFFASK
# Chain of Bcl-xl (Q07817 whole entry): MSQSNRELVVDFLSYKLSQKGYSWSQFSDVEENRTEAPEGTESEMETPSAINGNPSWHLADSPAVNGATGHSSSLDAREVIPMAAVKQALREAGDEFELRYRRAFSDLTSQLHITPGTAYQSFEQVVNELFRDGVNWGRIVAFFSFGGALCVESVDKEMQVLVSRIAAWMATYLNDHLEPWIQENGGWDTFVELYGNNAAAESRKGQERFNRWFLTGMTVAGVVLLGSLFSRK
# Chain of Mcl-1 (Q07820 whole entry): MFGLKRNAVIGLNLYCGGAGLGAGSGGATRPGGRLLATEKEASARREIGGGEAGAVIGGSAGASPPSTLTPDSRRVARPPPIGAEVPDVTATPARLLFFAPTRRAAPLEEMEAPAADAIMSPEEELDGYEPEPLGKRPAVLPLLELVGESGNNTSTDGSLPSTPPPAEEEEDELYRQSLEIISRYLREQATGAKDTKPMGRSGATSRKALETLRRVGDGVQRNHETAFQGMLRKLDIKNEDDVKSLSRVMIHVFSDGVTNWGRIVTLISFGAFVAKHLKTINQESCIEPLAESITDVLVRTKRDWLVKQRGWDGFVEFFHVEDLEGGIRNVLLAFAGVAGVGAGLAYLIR
smiles,measurement,setting,value
"O=c1[nH]cc(F)c(=O)[nH]1 [Compound 5-FU, 5-fluorouracil, reference compound]",mouse tumor volume upon the end point,NCI-N87 xenograft [1],2200 mm^3
same,apoptosis rate,NCI-N87 cells,18%
same,apoptosis rate,AGS cells,~15%
"Cc1c(S(C)(=O)=O)c(-c2cc(F)cc(N3CCN(c4ccc(NS(=O)(=O)c5ccc(N[C@H](CCN6CCC(C(=O)OCCP(=O)(O)O)CC6)CSc6ccccc6)c(S(=O)(=O)C(F)(F)F)c5)cc4)CC3)c2)c(-c2ccc(Cl)cc2)n1C(C)C [Compound 15, (R)-2-(1-(3-(4-(N-(4-(4-(3-(2-(4-chlorophenyl)-1-isopropyl-5-methyl-4-(methylsulfonyl)-1H-pyrrol-3-yl)-5-fluorophenyl)piperazin-1-yl)phenyl)sulfamoyl)-2-(trifluoromethylsulfonyl)phenylamino)-4-(phenylthio)butyl)piperidine-4-carbonyloxy)ethylphosphonic acid]",mouse tumor volume upon the end point,NCI-N87 xenograft [1],1600 mm^3
same,mouse body weight,"NCI-N87 xenograft [1]; mouse, in vivo",rebounded after a brief weight loss
same,mouse tumor volume upon the end point,NCI-N87 xenograft [2]; 25 mg/kg,700 mm^3
same,mouse tumor volume upon the end point,NCI-N87 xenograft [2]; 50 mg/kg,800 mm^3
same,percentage of Ki67-positive cells,NCI-N87 xenograft [2]; 100 mg/kg group,significantly lower than other groups
same,mouse tumor volume upon the end point,NCI-N87 xenograft [2]; 100 mg/kg,about 400 mm^3
same,cleaved-caspase3 and PARP-1 cleavage bands in the tumor tissue,"NCI-N87 xenograft [2]; 25, 50, 100 mg/kg",gradually increased as the dose increased
same,mouse body weight,NCI-N87 xenograft [2]; among the four groups,no significant difference in body weight
same,weight and size of the xenograft tumors,NCI-N87 xenograft [2]; as the dosing concentration increased,showed an evident trend of reduction
same,T/C (%) @ day 21,[3],125.4%
same,RTV @day 21,[3],17.05 ± 6.59
same,RTV @day 21,[4],2.0 ± 0.3
same,mRECIST_best,[4]; progressive disease,1/5 PD
same,mRECIST_best,[4]; stable disease,"4/5 SD,"
same,T/C (%) @ day 21,[4],70.0%
same,mRECIST_last,[4]; progressive disease,4/5 PD
same,mRECIST_last,[4]; stable disease,"1/5 SD,"
same,T/C (%) @ day 21,[5],136.8%
same,RTV @day 21,[5],9.75 ± 3.77
same,T/C (%),[6],84.4%
same,activity relative to the first generation BCL-2 inhibitor,[7],about 10 times
same,IC50,Bcl-xl,4.4 nM
same,binding to Mcl-1,Mcl-1,binds weakly
same,platelet toxicity reduced,platelet,10-30 times
same,T/C (%),[8],60.6%
same,patients with partial response (PR),metastatic solid tumors [9]; 36 patients with post-baseline tumor measurements,3
same,MTD/RP2D,metastatic solid tumors [9]; QW,240 mg
same,duration of PR,"metastatic solid tumors [9]; SCLC patient #002-001, 40 mg BIW",19 cycles
same,accumulation,"metastatic solid tumors [9]; human, in vivo",No significant accumulation
same,time to resolution of platelet drop / thrombocytopenia,"metastatic solid tumors [9]; human, in vivo",2 to 6 days
same,TRAE: alanine aminotransferase increased,"metastatic solid tumors [9]; human, in vivo, 28 day",7.1%
same,TRAE: aspartate aminotransferase increased,"metastatic solid tumors [9]; human, in vivo, 28 day",9.5%
same,TRAE: platelet count decreased,"metastatic solid tumors [9]; human, in vivo, 28 day",14.3%
same,patients with ≥G3 treatment emergent adverse events (TRAEs),"metastatic solid tumors [9]; human, in vivo, 28 day",26.2%
same,Cmax and AUC versus dose,"metastatic solid tumors [9]; human, in vivo, iv",approximately dose proportional
same,IC50,"[10]; Homo sapiens, MDA-MB-231, 72 h, read-out: IC50 (A alone), MDA-MB-231, 72 hours",2600 nM
same,IC50,"[10]; read-out: IC50 (A alone), MDA-MB-231, 72 hours",4550 nM
same,patients with partial remission (PR),"metastatic solid tumors [11]; 19 evaluated SCLC patients, US patient, dose of 40 mg",1
same,grade 3/4 AE: decreased lymphocyte count,metastatic solid tumors [11]; 44 patients,6.8%
same,grade 3/4 AE: elevated lipase,metastatic solid tumors [11]; 44 patients,6.8%
same,grade 3/4 AE: hyponatremia,metastatic solid tumors [11]; 44 patients,11.4%
same,tolerability,"metastatic solid tumors [11]; 44 patients, 7 dose levels, i.v. twice weekly or weekly",well tolerated at all tested dose levels
same,cases of stable disease in other tumor types,"metastatic solid tumors [11]; Australian studies, e.g. CRC",5
same,AUC and Cmax on day 1 versus dose,metastatic solid tumors [11]; dose range of 10-160 mg,increased proportionally with dose
same,MTD,metastatic solid tumors [11]; pooled analysis,had not been reached
same,IC50,Bcl-w,9.3 nM
same,IC50,Bcl-2,1.6 nM
"CCc1c2c(nc3ccc(OC(=O)N4CCC(N5CCCCC5)CC4)cc13)-c1cc3c(c(=O)n1C2)COC(=O)[C@]3(O)CC [Irinotecan, irinotecan]",T/C (%) @ day 21,[3],61.8%
same,RTV @day 21,[3],8.41 ± 2.49
same,RTV @day 21,[4],1.0 ± 0.2
same,mRECIST_best,[4],3/5 PR and 2/5 SD
same,T/C (%) @ day 21,[4],34.4%
same,mRECIST_last,[4],"1/5 PR, and 3/5 SD, and 1/5 PD"
same,T/C (%) @ day 21,[5],26.9%
same,RTV @day 21,[5],1.92 ± 0.24
same,T/C (%),[8],29.9%
"CC(=O)O[C@H]1C(=O)[C@@]2(C)[C@H]([C@H](OC(=O)c3ccccc3)[C@]3(O)C[C@H](OC(=O)[C@H](O)[C@@H](NC(=O)c4ccccc4)c4ccccc4)C(C)=C1C3(C)C)[C@]1(OC(C)=O)CO[C@@H]1C[C@@H]2O [Paclitaxel, paclitaxel]",T/C (%) @ day 21,[3],151.1%
same,RTV @day 21,[3],20.55 ± 3.20
same,RTV @day 21,[4],1.4 ± 0.4
same,mRECIST_best,[4],"3/5 PR, and 2/5 SD"
same,T/C (%) @ day 21,[4],48.4%
same,mRECIST_last,[4],"3/5 SD, and 2/5 PD"
same,T/C (%) @ day 21,[5],32.6%
same,RTV @day 21,[5],2.33 ± 0.13
N.N.[Cl][Pt][Cl] [cisplatin],RTV @day 21,[4],2.6 ± 0.2
same,mRECIST_best,[4],"2/5 SD, and 3/5 PD"
same,T/C (%) @ day 21,[4],90.2%
same,mRECIST_last,[4],5/5 PD
same,T/C (%),[12]; [13],65.0%
CC(=O)O[C@@]12CO[C@@H]1C[C@H](O)[C@@]1(C)C(=O)[C@H](O)C3=C(C)[C@@H](OC(=O)[C@H](O)[C@@H](NC(=O)OC(C)(C)C)c4ccccc4)C[C@@](O)([C@@H](OC(=O)c4ccccc4)[C@H]21)C3(C)C [docetaxel],T/C (%),[6],72.4%
same,T/C (%),"[12]; FIG. 5: Compound 15 100 mg/kg, docetaxel 8 mg/kg",54.5%
same,T/C (%),[12]; [13],39.0%
